This test concerns cell line U-87. As to the kind of experiment: Activity against the cell line U-87. The format is cell-based, human. Conditions: potency on an equimolar basis.

SMILES strings stand for the structures.

Consider `O=C(CCCCCCNC(=O)c1ccccc1S)Nc1ccccc1` [Compound 212, 2-Mercapto-N-(6-phenylcarbamoyl-hexyl)benzamide], for which the “activity against the cell line U-87” value is recorded as “most potent on an equimolar basis”.

Take `O=C(CCCCCCCNC(=O)c1ccccc1S)Nc1ccccc1` [Compound 213]: the “activity against the cell line U-87” value is recorded as “most potent on an equimolar basis”.

The record behind these values is patent US8455688B2, “HDAC inhibitors” (Lixte Biotechnology, Inc., priority 2007, dated 2013).
